Data as given in PMC10291556 (Journal of Medicinal Chemistry, 2023).

Experiments:
[1] = test system: HeLa cells; test: Cellular accumulation of platinum (ICP-MS); assay type: cell-based, human; details: for cellular uptake 0.1 μM/24 h: 0.1 μM complex; for cellular uptake 1 μM/6 h: 1 μM complex; for cellular uptake 10 μM/6 h: 10 μM complex; for cellular uptake relative to Pt(IV) complex 2: Table 3
Method: Briefly, 3 × 10^6 cells were seeded in 100 mm culture dishes and grown overnight. The cells were exposed to the tested complexes at indicated concentrations for indicated periods. […] The pellets were digested using the microwave acid (HCl) digestion system (CEM Mars). The platinum quantity taken up by the cells was determined by inductively coupled plasma mass spectrometry (ICP–MS). All experiments were performed in triplicate.

[2] = test system: HeLa; test: MTT antiproliferative assay, 72 h; assay type: cell-based, human; details: for increase of antiproliferative activity relative to Pt(IV) complex 2: IC50, Table 1; for IC50: MTT, 72 h incubation, mean ± SD, read-out: IC50 HeLa
Method: (§1) Cells were treated with the tested compounds in a final volume of 200 μL/well. […] Calbiochem, Darmstadt, Germany) was added, and the cells were incubated for an additional 2–4 h. The medium was removed, and the insoluble formazan product was dissolved in 100 μL/well DMSO. The absorbance was read at 570 nm (vs 620 nm) using an Absorbance Reader (SUNRISE TECAN SCHOELLER). The read values were converted to the percentage of control. […] All experiments were made in triplicate.

[3] = test system: MCF-7; test: MTT antiproliferative assay, 72 h; assay type: cell-based, human; details: MTT, 72 h incubation, mean ± SD; read-out: IC50 MCF-7
Method: as §1

[4] = test system: A2780cisR; test: MTT antiproliferative assay, 72 h; assay type: cell-based, human; details: MTT, 72 h incubation, mean ± SD; read-out: IC50 A2780cisR
Method: as §1

[5] = test system: HCT-116; test: MTT antiproliferative assay, 72 h; assay type: cell-based, human; details: MTT, 72 h incubation, mean ± SD; read-out: IC50 HCT-116
Method: as §1

[6] = test system: MDA-MB-231; test: MTT antiproliferative assay, 72 h; assay type: cell-based, human; details: MTT, 72 h incubation, mean ± SD; read-out: IC50 MDA-MB-231
Method: as §1

[7] = test system: A2780; test: MTT antiproliferative assay, 72 h; assay type: cell-based, human; details: MTT, 72 h incubation, mean ± SD; read-out: IC50 A2780
Method: as §1

[8] = test system: HeLa cells; test: Mitochondrial membrane potential (TMRE, flow cytometry); assay type: cell-based, human; details: 10× IC50, 1 h, vs untreated control
Method: Figure 4 Changes in the mitochondrial membrane potential Δψm in HeLa cells. The cells were treated with Pt compounds at the concentrations corresponding to 10× IC50 for 1 h and subsequently stained with TMRE. The fluorescence was measured by flow cytometry. Data represents mean ± SD from three independent experiments, *p < 0.01.
HeLa cells were seeded (6-well plates, 3 × 10^5 cells/well), grown overnight, and then treated with the tested compounds for 1 h. The medium was removed, and a fresh medium containing TMRE (Thermo Fisher Scientific) at a final concentration of […] in 500 μL was added. The cells were incubated for 30 min at 37 °C and then harvested using trypsin. TMRE fluorescence was measured with a fluorescence-activated cell sorting (FACS) Verse flow cytometer (Becton Dickinson), and the data were analyzed using the ModFit LT 4.1 (Verity Software House) software. The experiment was performed in triplicate.

[9] = test system: HeLa cells; test: Re-adhesion assay; assay type: cell-based, human; details: 10× IC50, 1 h
Method: Figure 7 (A–E) Wound healing assay. The monolayer of HeLa cells was scratched with a 10 μL tip, and a starving medium containing the tested complexes was added. The shots were taken at times 0 and 24 h. (A) Control, non-treated cells; (B) cells treated with complex 3; (C) cells treated with complex 4. […] (E) Evaluation of wound healing assay. Bars represent gap size vs. Control (100%), following a 24 h incubation with the investigated compounds. Light gray bars: complex 3; dark gray bars: complex 4; black bar: complex 2. (F) Re-adhesion assay. […] Following trypsinization, the cells were resuspended in Dulbecco’s modified Eagle medium (DMEM), counted, left to reconstitute adhesive membrane proteins for 30 min, and re-seeded at the density of 3× 10^4 cells/100 μL/well. After 30 min of incubation at 37 °C, the re-adhesion activity was determined as described in the Experimental Section. […]
HeLa cells were grown in 6-well plates for 24 h. […] Following the treatment, the cells were trypsinized, washed, and resuspended in fresh serum-free medium, counted, and left at room temperature for 30 min to allow surface receptor reconstitution. […] The number of adhered cells was determined with sulforhodamine B (SRB) assay. […] The bound SRB was dissolved in 10 mM Tris base (pH 10.5), and the absorbance was recorded at 570 nm with an Absorbance Reader (SUNRISE TECAN, SCHOELLER). […]

[10] = Partition coefficient, shake-flask method; assay type: physicochemical; details: octanol/water
Method: The “shake flask” method was used to measure the partition coefficients (P) of platinum compounds. The compounds were dissolved in octanol-saturated water (OSW) containing 200 mM NaCl. […] After careful separation of the layers with a fine-tip pipet, the Pt content in individual phases was determined by flameless atomic absorption spectrometry. The partition coefficients were calculated as the concentration ratio of the compound in the octanol layer to that in the aqueous layer, log P = log([Pt]WSO/[Pt]OSW).

[11] = test system: DNA isolated from HeLa cells; test: Pt associated with DNA isolated from treated HeLa cells; assay type: cell-based, human; details: 1 µM compound, 6 h, mean ± SD
From the text: page 16: Table S1: […] concentration of tested compounds for 6 ha. […] Figure S19: A. Representative histograms obtained by flow cytometric analysis of calreticulin exposure in HeLa cells treated with indicated compounds. B. An example of gating DAPI negative population. Only DAPI-negative cells were taken for the evaluation.

Q: For Cc1c(C)c2c3c4c1=CC=C[N]4[Pt]([Cl])[N]3C=CC=2.NCCNC(=O)Cc1ccccc1Nc1c(Cl)cccc1Cl.N[C@H]1CCCC[C@@H]1N [complex 3, Pt(IV)56MESSenDCFCl], which “cellular uptake 0.1 μM/24 h” value [1] is on record?
A: 3.6 ± 0.2 ng Pt/10^6 cells

Q: What about the “cellular uptake 1 μM/6 h” value [1] of the same molecule?
A: 9.6 ± 0.8 ng Pt/10^6 cells

Q: What about the “cellular uptake 10 μM/6 h” value [1] of the same molecule?
A: 61 ± 8 ng Pt/10^6 cells

Q: And the “cellular uptake relative to Pt(IV) complex 2” value [1]?
A: 1.3–1.6 fold

Q: What about the “increase of antiproliferative activity relative to Pt(IV) complex 2” value [2] of the same molecule?
A: 4.5 fold

Q: And the IC50 [2]?
A: 600 ± 100 nM

Q: What about the IC50 [3] of the same molecule?
A: 400 ± 100 nM

Q: What about the IC50 [4] of the same molecule?
A: 130 ± 20 nM

Q: What about the IC50 [5] of the same molecule?
A: 200 ± 30 nM

Q: What about the IC50 [6] of the same molecule?
A: 400 ± 100 nM

Q: And the IC50 [7]?
A: 120 ± 20 nM

Q: And the “mitochondrial membrane potential Δψm (TMRE fluorescence)” value [8]?
A: significant (p < 0.01) decrease in TMRE fluorescence

Q: What about the “re-adhesion to the growth surface” value [9] of the same molecule?
A: lower the ability of HeLa cells to re-adhere to the growth surface

Q: What about the “log P” value [10] of the same molecule?
A: –1.7 ± 0.1

Q: What about the “amount of Pt associated with DNA” value [11] of the same molecule?
A: 2.3 ± 0.2 pg Pt/µg DNA

Q: Which results are given for Cc1c(C)c2c3c4c1=CC=C[N]4[Pt][N]3C=CC=2.NCCNC(=O)Cc1ccccc1Nc1c(Cl)cccc1Cl.NCCNC(=O)Cc1ccccc1Nc1c(Cl)cccc1Cl.N[C@H]1CCCC[C@@H]1N [complex 4, Pt^IV56MeSS(DCF)2]?
A: cellular uptake 0.1 μM/24 h [1]: 3.9 ± 0.3 ng Pt/10^6 cells; cellular uptake 1 μM/6 h [1]: 11 ± 2 ng Pt/10^6 cells; cellular uptake 10 μM/6 h [1]: 82 ± 7 ng Pt/10^6 cells; cellular uptake relative to Pt(IV) complex 2 [1]: 1.7–1.8 fold; increase of antiproliferative activity relative to Pt(IV) complex 2 [2]: 9 fold; IC50 [2]: 310 ± 80 nM; IC50 [3]: 330 ± 50 nM; IC50 [4]: 80 ± 20 nM; IC50 [5]: 180 ± 50 nM; IC50 [6]: 290 ± 40 nM; IC50 [7]: 50 ± 10 nM; mitochondrial membrane potential Δψm (TMRE fluorescence) [8]: significant (p < 0.01) decrease in TMRE fluorescence; re-adhesion to the growth surface [9]: lower the ability of HeLa cells to re-adhere to the growth surface; log P [10]: –1.4 ± 0.1; amount of Pt associated with DNA [11]: 4.6 ± 0.3 pg Pt/µg DNA
